In BigSolDB 2.1:

O=C(O)c1ccc(-c2ccc(C(=O)O)o2)o1
solubility (mole fraction)
Settings | in DMAc | in DMSO | in acetic acid | in acetonitrile | in isopropanol | in methanol | in n-pentanol | in water
298.15 K | 0.0166 | 0.00768 | 8.11e-06 | 1.73e-06 | 0.0001 | 0.000331 | 0.000146 | 9.64e-07
303.15 K | 0.0208 | 0.00984 | 1.13e-05 | 2.2e-06 | 0.000106 | 0.000393 | 0.000154 | 1.31e-06
313.15 K | 0.0283 | 0.017 | 2.35e-05 | 3.47e-06 | 0.000154 | 0.000464 | – | 1.97e-06
323.15 K | 0.0499 | 0.0282 | 3.38e-05 | 5.31e-06 | 0.000223 | 0.000574 | 0.000148 | 2.55e-06
333.15 K | 0.0555 | 0.0412 | 6.79e-05 | 7.91e-06 | 0.000284 | 0.000702 | 0.000214 | 3.75e-06
343.15 K | 0.0807 | 0.0728 | 0.000112 | 1.15e-05 | 0.000592 | 0.00109 | 0.000412 | 4.84e-06
353.15 K | – | – | 0.000214 | 1.58e-05 | 0.00116 | – | 0.000757 | 7.43e-06
363.15 K | – | – | – | 2.12e-05 | 0.0014 | – | 0.00144 | 9.09e-06
